In ChEMBL document CHEMBL1126466, “Chemical synthesis of D-erythro-sphingosine-1-phosphate, and its inhibitory effect on cell motility” (1992):
“And” between values parts separate entries of the source, which are not always exact repeats. Equal entries are not always repeated.

What was measured:
Assay type in all cases: functional, B16/F1
[1] = The compound was tested for inhibitory effect on motility of mouse melanoma B16/Fl cells in an in vitro Matri gel-coated transwell assay system at 0.001 uM concentration expressed as percent migration
[2] = The compound was tested for inhibitory effect on motility of mouse melanoma B16/Fl cells in an in vitro Matri gel-coated transwell assay system at 1 uM concentration
[3] = The compound was tested for inhibitory effect on motility of mouse melanoma B16/Fl cells in an in vitro Matri gel-coated transwell assay system at 1 uM concentration expressed as percent migration
[4] = The compound was tested for inhibitory effect on motility of mouse melanoma B16/Fl cells in an in vitro Matri gel-coated transwell assay system at 0.01 uM concentration expressed as percent migration
[5] = The compound was tested for inhibitory effect on motility of mouse melanoma B16/Fl cells in an in vitro Matri gel-coated transwell assay system at 5 uM concentration expressed as percent migration
[6] = The compound was tested for inhibitory effect on motility of mouse melanoma B16/Fl cells in an in vitro Matri gel-coated transwell assay system at 0.1 uM concentration expressed as percent migration
[7] = The compound was tested for inhibitory effect on motility of mouse melanoma B16/Fl cells in an in vitro Matri gel-coated transwell assay system at 0.001 uM concentration

| Structure (SMILES) | Migration [1] [%] | Migration [2] [%] | Migration [3] [%] | Migration [4] | Migration [5] | Migration [6] | Migration [7] [%] |
| --- | --- | --- | --- | --- | --- | --- | --- |
| CCCCCCCCCCCCC/C=C/[C@@H](O)[C@@H](N)COP(=O)(O)O | 122 | 10 | 8 | 12% and 17% | 34% and 41% | 6% and 12% | 82 |
| CCCCCCCCCCCCC/C=C/[C@@H](O)[C@@H](N)CO [SPHINGOSINE] | – | – | 78 | – | 12% | 90% | – |
